Test in all cases: steady-state kinetics, coupled assay with GAP dehydrogenase (NAD+)
Data set [1] has as its target T1, ZmTrpA^L6BX1 (ZmTrpA_L6zmBX1) (Zea mays, UniProt B2Y0K4, T232V/V233N/T238P/S243N/G244P/K245R).
T1 construct: gene TSA; ZmTrpA with loop 6 replaced by that of ZmBX1; without TrpB
Format: biochemical. As to conditions: retro-aldol cleavage; 100 mM EPPS/KOH pH 7.5, 180 mM KCl, 40 μM PLP, 6 mM NAD+, 20 mM Na3AsO4, 30 °C; no TrpB; cited from earlier work. The source says:
steady-state kinetics, coupled assay with GAP dehydrogenase (NAD+) on ZmTrpA^L6BX1 (ZmTrpA_L6zmBX1)

For data set [2], the target named is T2, ZmTrpA^L6BX1 + ZmTrpB (Zea mays, UniProt B2Y0K4, T232V/V233N/T238P/S243N/G244P/K245R, form not given).
T2 construct: gene TSA; ZmTrpA with loop 6 of ZmBX1, in complex with ZmTrpB in excess; with Tryptophan synthase beta chain, chloroplastic
Format: biochemical. As to conditions: retro-aldol cleavage, 100 mM EPPS/KOH pH 7.5, 180 mM KCl, 40 μM PLP, 6 mM NAD+, 20 mM Na3AsO4, 100 mM L-serine, 30 °C, variant ZmTrpA^SPM4-L6BX1. The text has this: steady-state kinetics, coupled assay with GAP dehydrogenase (NAD+) on ZmTrpA^L6BX1 + ZmTrpB

Data set [3] addresses T3, ZmTrpA + ZmTrpB (Zea mays, UniProt B2Y0K4).
T3 construct: gene TSA; alpha-beta-beta-alpha tryptophan synthase complex, TrpB in excess; construct details only in supplement; with Tryptophan synthase beta chain, chloroplastic
Format: biochemical. As to conditions: retro-aldol cleavage, 100 mM EPPS/KOH pH 7.5, 180 mM KCl, 40 μM PLP, 6 mM NAD+, 20 mM Na3AsO4, 100 mM L-serine, 30 °C. The text has this: steady-state kinetics, coupled assay with GAP dehydrogenase (NAD+) on ZmTrpA + ZmTrpB

Substrate in data set [4]: O=P(O)(O)OC[C@@H](O)[C@@H](O)c1c[nH]c2ccccc12
Format: biochemical, Zea mays. As to conditions: retro-aldol cleavage, 100 mM EPPS/KOH pH 7.5, 180 mM KCl, 40 μM PLP, 6 mM NAD+, 20 mM Na3AsO4, 30 °C, no TrpB. The text has this:
steady-state kinetics, coupled assay with GAP dehydrogenase (NAD+) on ZmBX1

Among the data in article PMC11574760, “Altering Active-Site Loop Dynamics Enhances Standalone Activity of the Tryptophan Synthase Alpha Subunit” (ACS Catalysis, 2024) are Km, kcat and kcat/Km values, retold here.

Usually Km stands for the substrate concentration at which the rate is half of its maximum. For orientation: kcat means the number of substrate molecules converted per active site and unit of time at saturation. In general, kcat/Km refers to the turnover number divided by the Michaelis constant.

T3 sequence (B2Y0K4 entry or part of it): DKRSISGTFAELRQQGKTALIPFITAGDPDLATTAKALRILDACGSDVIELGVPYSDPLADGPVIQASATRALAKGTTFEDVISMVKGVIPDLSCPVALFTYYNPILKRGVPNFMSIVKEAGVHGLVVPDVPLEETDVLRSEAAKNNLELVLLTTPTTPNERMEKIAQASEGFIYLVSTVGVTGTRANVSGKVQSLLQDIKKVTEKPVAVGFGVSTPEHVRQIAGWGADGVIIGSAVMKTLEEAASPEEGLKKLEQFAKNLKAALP
T3 sequence (P43284 46-443, further chain): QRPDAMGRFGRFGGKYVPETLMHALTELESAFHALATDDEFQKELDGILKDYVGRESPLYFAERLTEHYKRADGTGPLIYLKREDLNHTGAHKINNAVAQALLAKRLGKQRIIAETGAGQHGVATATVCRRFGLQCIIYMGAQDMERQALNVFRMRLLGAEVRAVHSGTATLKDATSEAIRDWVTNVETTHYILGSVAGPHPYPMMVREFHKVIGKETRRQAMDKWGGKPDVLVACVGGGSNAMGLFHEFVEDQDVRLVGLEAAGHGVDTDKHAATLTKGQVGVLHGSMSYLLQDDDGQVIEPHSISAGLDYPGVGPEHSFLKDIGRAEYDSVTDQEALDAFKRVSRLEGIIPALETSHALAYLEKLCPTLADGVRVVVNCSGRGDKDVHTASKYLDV
T2 sequence (P43284 46-443, stated change not applied, form open): as the sequence (P43284 46-443, further chain) above
T2 sequence (B2Y0K4 entry or part of it T232V/V233N/T238P/S243N/G244P/K245R, form open): as the sequence (B2Y0K4 entry or part of it) above, with T179V, V180N, T185P, S190N, G191P, K192R counted along it
T1 sequence (B2Y0K4 entry or part of it T232V/V233N/T238P/S243N/G244P/K245R): as the sequence (B2Y0K4 entry or part of it) above, with T179V, V180N, T185P, S190N, G191P, K192R counted along it

Turning to `O=P(O)(O)OC[C@@H](O)[C@@H](O)c1c[nH]c2ccccc12` [indole-glycerol phosphate], the Michaelis constant (Km) was 3350 ± 340 µM in data set [1], 70 ± 12 µM in data set [2], 134 ± 9 µM in data set [3] (variant ZmTrpA^SPM4) and 103 ± 13.1 µM in data set [3] (variant ZmTrpA^SPM6).

B1: ZmBX1 (Zea mays) (protein)
chain: SRPVSDTMAALMAKGKTAFIPYITAGDPDLATTAEALRLLDGCGADVIELGVPCSDPYIDGPIIQASVARALASGTTMDAVLEMLREVTPELSCPVVLLSYYKPIMSRSLAEMKEAGVHGLIVPDLPYVAAHSLWSEAKNNNLELVLLTTPAIPEDRMKEITKASEGFVYLVSVNGVTGPRANVNPRVESLIQEVKKVTNKPVAVGFGISKPEHVKQIAQWGADGVIIGSAMVRQLGEAASPKQGLRRLEEYARGMKNALP
notes: standalone enzyme; construct details only in supplement
In the case of B1, in data set [4], the Michaelis constant (Km) turned out to be 11 ± 1.3 µM, the kcat is 5.2 ± 0.13 s⁻¹ and the catalytic efficiency (kcat/Km) was 474000 ± 56100 M⁻¹ s⁻¹.
